Results on 3 molecules are retold here after patent publication US20060275250A1, “Reactive polymers and copolymers, method of their preparation and their use” (priority 2003, published 2006).

In brackets after ≈: the same amount, converted by molar mass.

The term IC50 denotes the point on the concentration scale where inhibition reaches its midpoint. A high value points to weaker potency in that assay.

Data set [1] has as its system mouse T-cell lymphom EL-4. Nature of the data set: In vitro cytotoxicity, [3H]thymidine incorporation, EL-4 tumour line. It is filed as cell-based. The settings on record: mouse T-cell lymphoma EL-4 line, 50% decrease in proliferation. The procedure:
(§1) In vitro cytotoxicity tests were performed by a standard method on ConA-stimulated and nonstimulated mouse T-splenocytes and on a tumour line of mouse T-cell lymphom EL-4. Cytotoxicity was followed by a change of incorporation of [^3H]thymidine into cells incubated in a medium containing the tested sample in various concentrations. The cytotoxicity was expressed by the IC50 factor (the substance concentration at which a 50% decrease in proliferation of tested cells is observed).
For orientation: Incorporation of labelled thymidine or its analogues reports DNA synthesis.

Data set [2] concerns ConA-stimulated mouse T-splenocytes. Nature of the data set: In vitro cytotoxicity, [3H]thymidine incorporation, ConA-stimulated mouse T-splenocytes. The format is cell-based. The settings on record: Splenocyte, 50% decrease in proliferation. The procedure: as §1
The conditions of data set [3]: clinical testing; cumulative dose reached 1680 mg/m^2; cited from earlier work.
A further data set concerns human melanoma. The data set can be described thus: Treatment of human melanoma in nu-nu mice. It is filed as in vivo. The settings on record: compared with the conjugate from ONp or Su reactive polymer, FIG. 3. An excerpt: The properties of the conjugate were compared with those of the conjugate prepared from the classic ONp reactive polymer. […] The synthesis using the reactive polymer according to the invention proceeded faster, a polymer with a smaller content of reactive groups (2 mol %) could be used for obtaining the same product, and in the resulting conjugate no unmodified protein or unreacted polymer was present (the conversion of the reaction of reactive groups was higher).
A star-like poly(HMPA)—RNase A conjugate was prepared from a semitelechelic polymer prepared according to Example 3 by the same procedure as in the synthesis starting from poly(HPMA) with succinimidyl end group. The star conjugate was purified from low-molecular-weight materials by preparative gel chromatography (Sephacryl S300, column 26×600 mm, flow-rate 12.5 ml/h, distilled water). After concentration using an ultrafiltration membrane (PM 30), the product was lyophilized. Comparing the conjugate syntheses using polymers with OSu and TT reactive groups, the latter led to higher reaction yields and much smaller amounts of unreacted (hydrolyzed) polymer in the reaction mixture.

Turning to `COc1cccc2c1C(=O)c1c(O)c3c(c(O)c1C2=O)C[C@@](O)(C(=O)CO)C[C@@H]3O[C@H]1C[C@H](N)[C@H](O)[C@H](C)O1` [Dox, doxorubicin], the figures for the half-maximal inhibitory concentration (IC50) in data set [1] and in data set [2] were 0.03 mg/L (≈ 0.0552 µM) and 0.07 mg/L (≈ 0.129 µM), respectively.

For “N-(2-hydroxypropyl)methacrylamide copolymer doxorubicin [PK1]”, in data set [3], the “changes in cardial functions” value is listed as “no serious changes in cardial functions were observed”.

B1: star-like poly(HMPA)—RNase A conjugate (conjugate, UniProt P61823 27-150, looked up)
Ribonuclease pancreatic: KETAAAKFERQHMDSSTSAASSSNYCNQMMKSRNLTKDRCKPVNTFVHESLADVQAVCSQKNVACKNGQTNCYQSYSTMSITDCRETGSSKYPNCAYKTTQANKHIIVACEGNPYVPVHFDASV
modifications: star-like poly(HPMA) polymer conjugate
As to B1, in the data set on human melanoma, the “biological properties / in vivo activity in the treatment of human melanoma” value is “active under in vivo conditions equally well as the conjugate prepared from reactive Su ester”.
